Experimental data: the NIST ThermoML archive (doi:10.1021/je060271a)
Several values for one entry are separate records, joined by “and”; a condition that tells them apart may be missing. Identical values can stand only once.

Details: 283.15 K, Liquid, Vibrating tube method

CCCCCC(=O)OCC(COC(=O)CCCCC)(COC(=O)CCCCC)COC(=O)CCCCC [pentaerythritol tetrahexanoate]
Details | mass density
6771 kPa | 1008.1 kg/m3
6771.2 kPa | 1008 kg/m3
6771.4 kPa | 1008.1 kg/m3 and 1008 kg/m3
6771.6 kPa | 1008.1 kg/m3
6771.7 kPa | 1008.1 kg/m3
6771.9 kPa | 1008 kg/m3
6772.1 kPa | 1008.1 kg/m3
6772.3 kPa | 1008.1 kg/m3
6772.4 kPa | 1008 kg/m3 and 1008.1 kg/m3 and 1008.2 kg/m3
6772.6 kPa | 1008.1 kg/m3 and 1008 kg/m3
6772.8 kPa | 1008.1 kg/m3 and 1007.9 kg/m3
6772.9 kPa | 1008.1 kg/m3
6773.1 kPa | 1008 kg/m3 and 1008.2 kg/m3
6773.3 kPa | 1008 kg/m3 and 1008.2 kg/m3
6773.5 kPa | 1008 kg/m3 and 1008.1 kg/m3
6773.6 kPa | 1008.1 kg/m3 and 1008.2 kg/m3 and 1008 kg/m3
6773.7 kPa | 1008 kg/m3
6773.8 kPa | 1008.1 kg/m3 and 1008 kg/m3
6774.1 kPa | 1008.1 kg/m3
6774.2 kPa | 1008.1 kg/m3
6774.3 kPa | 1008.1 kg/m3
6774.5 kPa | 1008.2 kg/m3 and 1008 kg/m3 and 1008.1 kg/m3
6774.7 kPa | 1008.1 kg/m3 and 1008.2 kg/m3 and 1008 kg/m3
6774.8 kPa | 1007.9 kg/m3 and 1008.1 kg/m3 and 1008 kg/m3
6775 kPa | 1008.1 kg/m3 and 1007.9 kg/m3
6775.1 kPa | 1008.2 kg/m3 and 1008.1 kg/m3
6775.2 kPa | 1008.1 kg/m3 and 1008.2 kg/m3
6775.4 kPa | 1008.2 kg/m3 and 1008 kg/m3
6776.1 kPa | 1008.1 kg/m3
6776.2 kPa | 1008.1 kg/m3
6776.6 kPa | 1008.2 kg/m3 and 1008.1 kg/m3
6776.8 kPa | 1008.1 kg/m3 and 1008.2 kg/m3 and 1008 kg/m3
6776.9 kPa | 1008.2 kg/m3 and 1008.1 kg/m3
6777.1 kPa | 1008.1 kg/m3
6777.3 kPa | 1008.1 kg/m3
6777.5 kPa | 1008.1 kg/m3 and 1008 kg/m3
6777.6 kPa | 1008.1 kg/m3 and 1008 kg/m3
6777.8 kPa | 1008.1 kg/m3 and 1008.2 kg/m3 and 1008 kg/m3
6778 kPa | 1008.2 kg/m3
6778.1 kPa | 1008 kg/m3 and 1008.1 kg/m3 and 1008.2 kg/m3
6778.3 kPa | 1008.1 kg/m3 and 1008.2 kg/m3
6778.5 kPa | 1008.1 kg/m3 and 1008 kg/m3 and 1007.9 kg/m3
6778.7 kPa | 1008 kg/m3 and 1008.1 kg/m3
6779 kPa | 1008.1 kg/m3
6779.2 kPa | 1008 kg/m3 and 1008.1 kg/m3
6779.3 kPa | 1008.2 kg/m3
6779.5 kPa | 1008 kg/m3 and 1008.1 kg/m3
6779.7 kPa | 1008.1 kg/m3 and 1008.2 kg/m3
6779.8 kPa | 1008.2 kg/m3
6779.9 kPa | 1008 kg/m3 and 1008.1 kg/m3
6780 kPa | 1008.1 kg/m3 [middle of 4 runs]
6780.2 kPa | 1008.1 kg/m3 and 1008 kg/m3
6780.3 kPa | 1008 kg/m3
6780.4 kPa | 1008 kg/m3 and 1008.2 kg/m3 and 1008.1 kg/m3
6780.5 kPa | 1008.1 kg/m3 and 1008 kg/m3
6780.6 kPa | 1008.1 kg/m3
6780.7 kPa | 1008 kg/m3 and 1008.2 kg/m3 and 1008.1 kg/m3
6780.8 kPa | 1008.2 kg/m3 and 1008.1 kg/m3
6780.9 kPa | 1008.1 kg/m3
6781 kPa | 1008.1 kg/m3 and 1008 kg/m3 and 1008.2 kg/m3
6781.1 kPa | 1008.1 kg/m3
6781.2 kPa | 1008.1 kg/m3
6781.3 kPa | 1008.1 kg/m3
6781.4 kPa | 1008.1 kg/m3
6781.5 kPa | 1008.1 kg/m3
6781.7 kPa | 1007.9 kg/m3
6781.9 kPa | 1008.1 kg/m3 and 1008 kg/m3
6782 kPa | 1008.2 kg/m3
6782.2 kPa | 1008.2 kg/m3 and 1008.1 kg/m3 and 1008 kg/m3
6782.4 kPa | 1007.9 kg/m3 and 1008.2 kg/m3 and 1008.1 kg/m3
6782.6 kPa | 1008.1 kg/m3 and 1008 kg/m3
6782.7 kPa | 1008.2 kg/m3 and 1008.1 kg/m3 and 1008 kg/m3
6782.9 kPa | 1008.1 kg/m3 and 1008 kg/m3
6783.1 kPa | 1007.9 kg/m3 and 1008.1 kg/m3 and 1008 kg/m3
6783.2 kPa | 1008 kg/m3
6783.3 kPa | 1008.1 kg/m3 and 1008 kg/m3
6783.4 kPa | 1008.1 kg/m3 [middle of 4 runs]
6783.6 kPa | 1008 kg/m3 and 1008.1 kg/m3 and 1008.2 kg/m3
6783.8 kPa | 1008.1 kg/m3
6784.1 kPa | 1008 kg/m3
6784.3 kPa | 1008.1 kg/m3
6784.5 kPa | 1008 kg/m3
6784.6 kPa | 1008.1 kg/m3
6784.7 kPa | 1008 kg/m3 and 1008.1 kg/m3
6784.8 kPa | 1008.1 kg/m3
6785 kPa | 1008.1 kg/m3 and 1008.2 kg/m3
6785.1 kPa | 1008.1 kg/m3 and 1008 kg/m3
6785.2 kPa | 1008.2 kg/m3 and 1008.1 kg/m3
6785.3 kPa | 1008.1 kg/m3 and 1008 kg/m3
6785.5 kPa | 1007.9 kg/m3
6785.7 kPa | 1008 kg/m3 and 1008.2 kg/m3 and 1008.1 kg/m3
6785.8 kPa | 1008.1 kg/m3 and 1008 kg/m3 and 1008.2 kg/m3
6786 kPa | 1008.1 kg/m3 and 1008 kg/m3
6786.2 kPa | 1008.1 kg/m3 and 1008.2 kg/m3
6786.3 kPa | 1008.1 kg/m3
6786.4 kPa | 1008.1 kg/m3
6786.5 kPa | 1008 kg/m3 and 1008.2 kg/m3 and 1008.1 kg/m3
6786.7 kPa | 1008 kg/m3 and 1008.1 kg/m3
6786.9 kPa | 1008 kg/m3 and 1008.1 kg/m3
6787 kPa | 1008 kg/m3
6787.2 kPa | 1008.1 kg/m3 and 1008 kg/m3
6787.4 kPa | 1008 kg/m3 and 1008.2 kg/m3 and 1008.1 kg/m3
6787.7 kPa | 1008.1 kg/m3
6787.9 kPa | 1008 kg/m3 and 1008.1 kg/m3
6788.1 kPa | 1008.2 kg/m3 and 1008.1 kg/m3
6788.2 kPa | 1008 kg/m3 and 1008.1 kg/m3
6788.4 kPa | 1008.1 kg/m3
6789.1 kPa | 1008.2 kg/m3
6789.2 kPa | 1008 kg/m3
6789.4 kPa | 1008 kg/m3
6789.5 kPa | 1008 kg/m3 and 1008.2 kg/m3 and 1008.1 kg/m3
6789.6 kPa | 1008.2 kg/m3 and 1008.1 kg/m3 and 1008 kg/m3
6789.7 kPa | 1008.1 kg/m3 and 1008 kg/m3
6789.8 kPa | 1008 kg/m3 and 1008.1 kg/m3 and 1008.2 kg/m3
6789.9 kPa | 1008 kg/m3
6795.1 kPa | 1008.1 kg/m3
6804.6 kPa | 1008.1 kg/m3
6816.7 kPa | 1008 kg/m3
6826.4 kPa | 1008 kg/m3
6835.7 kPa | 1008.2 kg/m3
6845.5 kPa | 1008.1 kg/m3
6856.1 kPa | 1008.3 kg/m3
6867.3 kPa | 1008.1 kg/m3
6879.6 kPa | 1008.1 kg/m3
6889.1 kPa | 1008.1 kg/m3
6899.3 kPa | 1008.1 kg/m3
6909.5 kPa | 1008.1 kg/m3
6921.6 kPa | 1008.2 kg/m3
6931.7 kPa | 1008.2 kg/m3
6941.9 kPa | 1008.1 kg/m3
6954.2 kPa | 1008.3 kg/m3
6964.7 kPa | 1008.2 kg/m3
6975.4 kPa | 1008.1 kg/m3
6988.1 kPa | 1008.1 kg/m3
6998.9 kPa | 1008.2 kg/m3
7009.8 kPa | 1008.1 kg/m3
7020.4 kPa | 1008.2 kg/m3
7033.3 kPa | 1008.2 kg/m3
7043.8 kPa | 1008.3 kg/m3
7054.9 kPa | 1008.2 kg/m3
7065.4 kPa | 1008.3 kg/m3
7078.4 kPa | 1008.2 kg/m3
7089.3 kPa | 1008.3 kg/m3
7100.3 kPa | 1008.3 kg/m3
7113.3 kPa | 1008.3 kg/m3
